In patent US6388090B2, “Imidazole derivatives” (Orion Corporation, priority 2000, dated 2002):

Tested on: alpha2 Adrenoceptors (Alpha2AR)
Assay: Antagonist activity on alpha2 adrenoceptors in rat vas deferens in vitro (electrically evoked contractions)
Conditions: isolated rat vas deferens, field stimulation; antagonist added at least five minutes before alpha2AR agonist
Method: Antagonist activity on alpha2 Adrenoceptors (Alpha2AR) in rat vas deferens in vitro
Rats were killed by CO2-suffocation. Vas deferentia were dissected out and both prostatic halves were removed to tissue chambers containing Krebs-solution of the following composition (mM): NaCl 118, KCl 4.7, CaCl22.5, KH2PO41.2, MgSO40.6, NaHCO325, glucose 11.1, aerated by 5% carbogen, temperature 37° C., pH 7.4. Propranolol […] and desipramine […] were added to prevent the possible effects on […] receptors and to prevent re-uptake of released norepinephrine, respectively. Preparations were tied to the bottom hooks of the incubation chambers and then to isometric force-displacement transducers above. Electrical stimulation was started after the equilibrium period (5 minutes under a resting tension of 0.5 g) by introducing field stimulation with the following parameters: twin-pulses, voltage 70 V, frequency 0.2 Hz, delay 5 ms, duration 2 ms. […] Inhibition of the electrically evoked contractions was measured as the response to alpha2AR agonists. Antagonist was administered into the incubation medium at least five minutes before agonist. Means ± SEM of percentage inhibition were calculated in the absence and in the presence of antagonist and expressed as dose-response curves. In order to express the antagonist potency, the pA2-value was calculated.

SMILES | vas deferens Alpha2 antagonistic activity, pA2
COc1cc2c(cc1OC)C(c1ccccc1)CC2Cc1c[nH]cn1 (stereo not shown) [Compound 2, 4-(5,6-Dimethoxy-3-phenylindan-1-ylmethyl)-1H-imidazole] | pA2 = 6.0
COc1ccc(C2CC(Cc3c[nH]cn3)c3cc(OC)ccc32)cc1 (stereo not shown) [Compound 5, 4-[6-Methoxy-3-(4-methoxyphenyl)indan-1-ylmethyl]-1H-imidazole] | pA2 = 6.3
c1ccc(C2CC(Cc3c[nH]cn3)c3ccccc32)cc1 (stereo not shown) [Compound 1, 4-(3-Phenylindan-1-ylmethyl)-1H-imidazole] | pA2 = 7.0
Oc1ccc(C2CC(Cc3c[nH]cn3)c3cc(O)ccc32)cc1 (stereo not shown) [Compound 6, 1-(4-Hydroxyphenyl)-3-(1H-imidazol-4-ylmethyl)indan-5-ol] | pA2 = 6.6
Oc1cc2c(cc1O)C(c1ccccc1)CC2Cc1c[nH]cn1 (stereo not shown) [Compound 3, 1-(1H-Imidazol-4-ylmethyl)-3-phenylindan-5,6-diol] | pA2 = 5.6
Fc1ccc(C2CC(Cc3c[nH]cn3)c3ccccc32)cc1F (stereo not shown) [Compound 11, 4-[3-(3,4-Difluorophenyl)indan-1-ylmethyl]-1H-imidazole] | pA2 = 6.2
Fc1ccc(C2CC(Cc3c[nH]cn3)c3cc(F)ccc32)cc1 (stereo not shown) [Compound 15, 4-[6-Fluoro-3-(4-fluorophenyl)indan-1-ylmethyl]-1H-imidazole] | pA2 = 6.2
Oc1ccc2c(c1)C(Cc1c[nH]cn1)C(c1ccccc1)C2 (stereo not shown) [Compound 14, 3-(1H-Imidazol-4-ylmethyl)-2-phenylindan-5-ol] | pA2 = 5.5
Fc1cccc(C2CC(Cc3c[nH]cn3)c3ccccc32)c1 (stereo not shown) [Compound 9, 4-[3-(3-Fluorophenyl)indan-1-ylmethyl]-1H-imidazole] | pA2 = 6.2
Oc1ccc2c(c1)C(Cc1c[nH]cn1)CC2c1ccccc1 (stereo not shown) [Compound 4, 3-(1H-imidazol-4-ylmethyl)-1-phenylindan-5-ol] | pA2 = 6.9
c1ccc(C2Cc3ccccc3C2Cc2c[nH]cn2)cc1 (stereo not shown) [Compound 16, 4-[(2,3-Dihydro-2-phenyl-1H-inden-1-yl)methyl]-1H-imidazole] | pA2 = 6.5
c1ccc(C2OC(Cc3c[nH]cn3)c3ccccc32)cc1 (stereo not shown) [Compound 12, 4-(3-Phenyl-1,3-dihydroisobenzofuran-1-ylmethyl)-1H-imidazole] | pA2 = 6.3
Oc1ccc2c(c1)C(Cc1c[nH]cn1)CC2c1ccc(F)cc1 (stereo not shown) [Compound 8, 1-(4-Fluorophenyl)-3-(1H-imidazol-4-ylmethyl)indan-5-ol] | pA2 = 6.7
Fc1ccc(C2CC(Cc3c[nH]cn3)c3ccccc32)cc1 (stereo not shown) [Compound 7, 4-[3-(4-Fluorophenyl)indan-1-ylmethyl]-1H-imidazole] | pA2 = 7.6
COc1ccc2c(c1)C(Cc1c[nH]cn1)C(c1ccccc1)C2 (stereo not shown) [Compound 13, 4-[(2,3-Dihydro-6-methoxy-2-phenyl-1H-inden-1-yl)methyl]-1H-imidazole] | pA2 = 5.6
Fc1ccccc1C1CC(Cc2c[nH]cn2)c2ccccc21 (stereo not shown) [Compound 10, 4-[3-(2-Fluorophenyl)indan-1-ylmethyl]-1H-imidazole] | pA2 = 6.2
